Measurements as given in ChEMBL document CHEMBL1201862, “PubChem BioAssay data set” (2004).
Calls of active or inactive are those of the source.

What was measured:
[1] = NIH3T3 cell viability loss – ATP luminescence, mouse fibroblasts, counter-screen, dose response (AID 2010); type: functional, cell-based;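 further: cells exposed to compound for about 90 hours before reading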
[2] = Trypanosoma cruzi growth suppression in host cells – NIH3T3 host cells, beta-gal luminescence, confirmation (AID 2044); type: functional, cell-based;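 further: intracellular parasites grown in NIH/3T3 mouse fibroblasts as host cells; luminescent beta-galactosidase reporter signal from transgenic T. cruzi replicating inside host cells; inhibitors lower the luminescence signal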
[3] = viability of PTEN-deleted HCT116 cells – cell-based, HCT116 PTEN knockout, dose response (AID 1047); type: functional;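 further: HCT116 colon tumor cells with PTEN knocked out; cells exposed to compound for 60 hours before readout; potency for loss of cell viability measured by luminescence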
[4] = viability of HCT116 lacking mutant beta-catenin – cell-based, human colon tumor, dose response (AID 1045); type: functional;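 further: HCT116 colon tumor cells with beta catenin knocked out; cells exposed to compound for 60 hours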
cells [5] = type: functional, cell-based
cells [6] = type: functional, cell-based; remark: listed apart in the source
cells [7] = type: functional
[8] = microbe, parasite or virus in culture; type: functional; conditions: Mycobacterium tuberculosis
[9] = Luminescence Cell-Based Dose Confirmation HTS to Identify Inhibitors of Platelet Dense Granule Release. [Related pubchem assays: 1663 (Primary HTS), 1678 (Summary of Project)]; type: functional
[10] = biological target: Luciferin 4-monooxygenase (Photinus pyralis, UniProt P08659); experiment: inhibition of purified Photinus pyralis luciferase – biochemical, luminescence, dose response (AID 1891)
[11] = blockers of HIV-1 ZM109 envelope-driven cell-cell fusion – HeLa effector, CEM target cells, luciferase, cherry-pick, dose response (AID 652058); type: functional, cell-based;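 further: luciferase signal from HIV-1 Env mediated cell-cell fusion of effector and target cells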
[12] = blockers of HIV-1 envelope-mediated cell-cell fusion – cherry-pick, dose response (AID 652057); type: functional, cell-based
[13] = test system: Streptococcus sp. 'group A'; experiment: Streptococcus pyogenes SK(-)GAS viability under kanamycin – luminescence, BacTiterGlo, confirmation, counter-screen for streptokinase expression inhibitor project, dose response (AID 1900); type: functional, organism-based
[14] = Luminescence Cell-Based Dose Response HTS to Identify Inhibitors of 5'UTR Stem-Loop Driven Prion Protein mRNA Translation in H4 Neuroglioblastoma Cells. [Related pubchem assays: 1827 (Project Summary), 1813 (Primary HTS)]; type: functional
[15] = luciferase reporter signal suppression in cells – H4 neuroglioma cells, luminescence, dose response (AID 1990); type: functional, cell-based
[16] = alpha-synuclein stem-loop luciferase translation blockers – H4 neuroglioma cells, luminescence, confirmation (AID 1988); type: functional, cell-based
Streptokinase A = biological target: T1, Streptokinase A (Streptococcus pyogenes serotype M1, UniProt P10520); experiment: viability-normalized secreted streptokinase activity reduction – plasminogen activation absorbance, OD405, dose response (AID 1914); type: functional, Streptococcus pyogenes M1 GAS;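 further: secreted streptokinase activity via plasminogen activation per viability signal from cell pellet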
T1 sequence (P10520 whole entry): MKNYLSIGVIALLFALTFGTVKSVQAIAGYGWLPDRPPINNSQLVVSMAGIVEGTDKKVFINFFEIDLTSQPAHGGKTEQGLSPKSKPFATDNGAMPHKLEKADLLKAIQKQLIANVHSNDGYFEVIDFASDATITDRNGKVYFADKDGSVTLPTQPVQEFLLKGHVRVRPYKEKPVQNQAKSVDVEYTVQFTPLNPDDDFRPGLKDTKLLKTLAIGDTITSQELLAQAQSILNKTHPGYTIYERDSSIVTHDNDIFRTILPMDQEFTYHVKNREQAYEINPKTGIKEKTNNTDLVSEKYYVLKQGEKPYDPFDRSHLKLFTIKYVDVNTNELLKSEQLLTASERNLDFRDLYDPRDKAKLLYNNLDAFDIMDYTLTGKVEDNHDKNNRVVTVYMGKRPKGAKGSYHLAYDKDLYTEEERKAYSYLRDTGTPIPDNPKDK

Streptococcus = experiment: GAS UMAA2166 growth inhibition – luminescence, BacTiterGlo, counter-screen for streptokinase expression inhibitor project, dose response (AID 1915); type: functional, organism-based;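 further: potency for reduction of bacterial viability or growth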
[17] = HIV-1 AD8 envelope cell-cell fusion blockers – cherry-pick, dose response (AID 652062); type: functional, cell-based;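 further: luciferase signal from cell-cell fusion driven by HIV-1 clade B AD8 Env; potency is for inhibitors of fusion seen as a drop in luminescence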
[18] = reduction of Shn3 3'UTR-driven luciferase in osteoblasts – cell-based, Clone20 osteoblasts, firefly luciferase, cherry-picked, dose response (AID 624132); type: functional;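 further: firefly luciferase luminescence from reporter carrying the Shn3 3'UTR in osteoblasts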
[19] = loss of viability in HepG2 cells – cell-based, CellTiter-Glo, cherry-picked, cytotoxicity control for Shn3 inhibitor project, dose response (AID 624134); type: functional
H9c2 = experiment: cells; type: functional, cell-based; conditions: Rattus norvegicus, H9c2, Myocardium;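 further: confirmatory concentration-response retest of ultra-high-throughput screening hits for modulation of myocardial damage; cell death induced by hydrogen peroxide oxidative stress; compound pretreatment for 60 min then peroxide exposure for 2 h; potency is for protecting the cells against peroxide damage rather than for killing them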
[20] = viability of uninfected HEp-2 cells – cell-based, HTS, cytotoxicity control for RSV inhibitor project, dose response (AID 2410); type: functional; conditions: human respiratory syncytial virus
Paired box protein Pax-8 = Paired box protein Pax-8 (Homo sapiens, UniProt Q06710); experiment: PAX8 transcriptional activity inhibition in RMG-I – RMG-I cells, luciferase, cherry-pick, dose response (AID 687027); type: functional, cell-based;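 further: luciferase reporter driven by Pax8 target thyroperoxidase promoter measured by SteadyGlo luminescence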
Cytochrome P450 2D6 = Cytochrome P450 2D6 (Homo sapiens, UniProt P10635);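 further: CYP2D6 member of a cytochrome P450 panel assay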
[21] = Luminescence Cell-Based Dose Retest to Confirm Inhibitors of Cancer Stem Cells. [Related pubchem assays (depositor defined):AID2717, AID2721]; type: functional; conditions: Homo sapiens
Cytochrome P450 2C9 = Cytochrome P450 2C9 (Homo sapiens, UniProt P11712)
[22] = biological target: T2, Heat shock factor protein 1 (Mus musculus, UniProt P38532); experiment: enhancement of HSF1-driven luciferase signal – cell-based, NIH3T3, luminescence, dose retest, confirmation (AID 435004); type: functional;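 further: stress induced by proteasome inhibitor MG132 added 30 min after compound; luciferase reporter driven by HSF1 response element in NIH3T3 cells; actives raise luminescence as potentiators of the MG132 stress response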
T2 sequence (P38532 whole entry): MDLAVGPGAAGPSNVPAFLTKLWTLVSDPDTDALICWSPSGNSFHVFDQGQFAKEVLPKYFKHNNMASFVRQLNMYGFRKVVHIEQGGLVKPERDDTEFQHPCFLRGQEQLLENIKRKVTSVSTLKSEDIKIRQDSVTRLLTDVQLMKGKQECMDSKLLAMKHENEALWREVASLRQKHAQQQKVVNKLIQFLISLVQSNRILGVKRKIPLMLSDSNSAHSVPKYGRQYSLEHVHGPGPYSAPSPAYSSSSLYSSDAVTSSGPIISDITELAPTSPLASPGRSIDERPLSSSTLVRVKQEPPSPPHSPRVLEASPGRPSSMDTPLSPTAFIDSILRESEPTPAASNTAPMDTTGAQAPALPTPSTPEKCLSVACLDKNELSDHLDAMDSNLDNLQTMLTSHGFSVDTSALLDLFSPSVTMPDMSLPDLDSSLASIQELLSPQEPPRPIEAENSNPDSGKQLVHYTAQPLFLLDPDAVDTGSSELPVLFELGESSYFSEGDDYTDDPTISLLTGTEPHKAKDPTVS

Luciferin 4-monooxygenase, sequence (P08659 whole entry, the tested form may be a part): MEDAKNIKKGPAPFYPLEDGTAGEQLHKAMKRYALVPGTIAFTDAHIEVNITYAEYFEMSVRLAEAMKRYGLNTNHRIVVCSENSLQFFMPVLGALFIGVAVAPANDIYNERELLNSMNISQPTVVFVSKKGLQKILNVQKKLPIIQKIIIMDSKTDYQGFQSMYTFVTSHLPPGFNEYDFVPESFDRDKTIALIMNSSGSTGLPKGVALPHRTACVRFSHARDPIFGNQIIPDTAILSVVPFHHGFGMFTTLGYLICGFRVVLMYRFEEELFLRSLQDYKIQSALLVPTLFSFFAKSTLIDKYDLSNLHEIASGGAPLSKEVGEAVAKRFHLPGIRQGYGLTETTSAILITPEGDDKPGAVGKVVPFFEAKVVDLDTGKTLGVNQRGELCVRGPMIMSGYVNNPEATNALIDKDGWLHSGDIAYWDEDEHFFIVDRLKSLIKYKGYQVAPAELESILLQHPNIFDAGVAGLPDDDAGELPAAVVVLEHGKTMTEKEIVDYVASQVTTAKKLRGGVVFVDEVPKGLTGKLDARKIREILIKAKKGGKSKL
Paired box protein Pax-8, sequence (Q06710 whole entry): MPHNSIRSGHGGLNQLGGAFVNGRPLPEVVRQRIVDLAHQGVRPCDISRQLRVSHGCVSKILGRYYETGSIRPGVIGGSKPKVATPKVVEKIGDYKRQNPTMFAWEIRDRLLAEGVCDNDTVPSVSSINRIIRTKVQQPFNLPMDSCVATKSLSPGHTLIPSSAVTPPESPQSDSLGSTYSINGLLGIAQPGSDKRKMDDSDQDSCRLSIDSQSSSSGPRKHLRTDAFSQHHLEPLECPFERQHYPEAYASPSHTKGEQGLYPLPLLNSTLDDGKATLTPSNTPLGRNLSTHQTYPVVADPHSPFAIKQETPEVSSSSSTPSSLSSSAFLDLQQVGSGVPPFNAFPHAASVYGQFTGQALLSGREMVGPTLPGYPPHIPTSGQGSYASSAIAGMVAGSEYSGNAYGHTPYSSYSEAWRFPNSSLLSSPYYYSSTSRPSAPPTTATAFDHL
Cytochrome P450 2D6, sequence (P10635 whole entry): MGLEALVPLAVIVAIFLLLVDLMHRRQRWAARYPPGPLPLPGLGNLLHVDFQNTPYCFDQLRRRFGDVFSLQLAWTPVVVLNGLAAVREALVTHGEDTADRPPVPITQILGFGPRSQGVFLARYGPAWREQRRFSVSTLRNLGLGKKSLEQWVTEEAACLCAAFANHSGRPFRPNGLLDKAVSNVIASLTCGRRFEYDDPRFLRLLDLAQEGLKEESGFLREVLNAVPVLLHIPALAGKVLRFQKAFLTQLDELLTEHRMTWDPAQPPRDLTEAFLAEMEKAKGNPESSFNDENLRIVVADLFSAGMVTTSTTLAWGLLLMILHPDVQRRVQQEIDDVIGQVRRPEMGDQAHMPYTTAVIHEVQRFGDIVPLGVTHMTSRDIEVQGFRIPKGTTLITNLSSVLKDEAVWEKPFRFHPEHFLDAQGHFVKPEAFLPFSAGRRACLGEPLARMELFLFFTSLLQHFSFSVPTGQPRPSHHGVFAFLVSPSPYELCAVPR
Cytochrome P450 2C9, sequence (P11712 whole entry): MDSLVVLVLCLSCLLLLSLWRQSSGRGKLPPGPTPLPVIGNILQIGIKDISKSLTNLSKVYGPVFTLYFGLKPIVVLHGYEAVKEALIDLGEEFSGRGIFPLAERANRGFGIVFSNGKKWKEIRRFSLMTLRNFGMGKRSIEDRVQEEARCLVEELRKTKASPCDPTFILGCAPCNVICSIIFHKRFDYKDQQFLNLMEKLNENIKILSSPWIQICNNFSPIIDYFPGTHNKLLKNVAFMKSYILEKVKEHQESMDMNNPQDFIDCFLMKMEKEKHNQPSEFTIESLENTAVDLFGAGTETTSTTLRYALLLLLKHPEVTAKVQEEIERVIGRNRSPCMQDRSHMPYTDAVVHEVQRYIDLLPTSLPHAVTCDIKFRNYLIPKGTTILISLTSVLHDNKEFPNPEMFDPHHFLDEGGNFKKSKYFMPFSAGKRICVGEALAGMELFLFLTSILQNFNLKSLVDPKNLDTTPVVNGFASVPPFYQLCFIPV

Cc1c(NC(=O)CSc2cccc3cccnc23)c(=O)n(-c2ccccc2)n1C
EC50 [1]: > 30 µM (not active) | EC50 [2]: 1.31 µM (active) | EC50 [3]: 17.4 µM (active) | EC50 [4]: 17 µM (active)

COc1ccc(NC(=O)CCC(=O)N(Cc2ccc(OC)c(OC)c2)c2nccs2)cc1
EC50 (cells [5]): > 350 µM (not active) | EC50 (cells [6]): > 350 µM (not active)

FC(F)(F)c1cnc(N2CCN(C(S)=NCc3ccccc3)CC2)c(Cl)c1
EC50 (cells [5]): > 350 µM (not active) | EC50 (cells [6]): > 350 µM (not active)

CCOc1ccc(-c2cc(CCCC(=O)NCCC(C)C)no2)cc1
IC50 (cells [7]): 10.6 µM (active) | CC50 [8]: > 40 µM (active)

COc1ccc2c(c1)N(C(=O)CSc1n[nH]c(C)n1)C(C)(C)C=C2C
EC50 [9]: > 112 µM (not active) | EC50 [10]: > 112 µM (not active)

C[C@H](CO)N1C[C@H](C)[C@H](CN(C)S(=O)(=O)c2ccccc2)Oc2ccc(NS(=O)(=O)c3ccc(F)cc3)cc2CC1=O
AC50 [11]: 28.8 µM (active) | AC50 [12]: 15.1 µM (active)

CC1(C)Cc2c(sc(NC(=O)c3ccc(C(=O)c4ccccc4)cc3)c2C(N)=O)C(C)(C)N1
EC50 [13]: 26.3 µM (active) | EC50 [14]: 16.9 µM (active) | EC50 [15]: 10.3 µM (active) | EC50 [16]: 11.6 µM (active) | CC50 [8]: 20.7 µM (active) | EC50 (Streptokinase A): > 150 µM (not active) | EC50 (Streptococcus): > 150 µM (not active)

CCC12CN(S(=O)(=O)c3ccc(C)cc3)CC(CC)(CN(S(=O)(=O)c3ccc(C)cc3)C1)C2=O
AC50 [17]: 22 µM (active) | AC50 [18]: 3.48 µM (active) | AC50 [11]: 42.7 µM (active) | AC50 [12]: 2.44 µM (active) | AC50 [19]: 66.7 µM (active)

O=C(O)CCCCCCC1C(=O)NC(=O)N1CCC(O)C1CCCCC1 (stereo not drawn)
EC50 [9]: < 0.088 µM (active) | EC50 [10]: > 112 µM (not active)

O=C1/C(=C\c2ccc([N+](=O)[O-])cc2)CCc2ccccc21
EC50 [9]: 2.53 µM (active) | EC50 [10]: 8.13 µM (active)

CCOC(=O)C1CCCN(C(=O)c2ccc3nc(-c4ccccc4)c(-c4ccccc4)nc3c2)C1 (stereo not drawn)
EC50 (cells [5]): > 350 µM (not active) | EC50 (cells [6]): > 350 µM (not active)

Cc1ccc(S(=O)(=O)N(C)C[C@@H]2Oc3ccc(NS(=O)(=O)c4ccccc4)cc3CC(=O)N([C@H](C)CO)C[C@@H]2C)cc1
AC50 [17]: 26.6 µM (active) | AC50 [11]: 8.38 µM (active) | AC50 [12]: 2.75 µM (active)

COc1ccc(/C=C2\SC(=O)N(CCC(=O)N(C)C3CCS(=O)(=O)C3)C2=O)cc1 (stereo not drawn)
EC50 (cells [5]): > 350 µM (not active) | EC50 (cells [6]): > 350 µM (not active)

O=c1cc(-c2ccncc2)oc2ccccc12
IC50 (H9c2): > 79 µM (inactive) | CC50 [20]: 36.7 µM (active)

O=[N+]([O-])c1cc2c(ccc3occc32)o1
AC50 (Paired box protein Pax-8): 2.49 µM (active)

CC1CC/C(=C\c2ccc3c(c2)OCO3)C(=O)/C1=C/c1ccc2c(c1)OCO2 (stereo not drawn)
AC50 (Cytochrome P450 2D6): 2.51 µM (inconclusive) | EC50 [3]: 13.8 µM (active) | AC50 [21]: 2.92 µM (active) | AC50 (Cytochrome P450 2C9): 6.31 µM (inconclusive) | EC50 [4]: 14.3 µM (active)

O=C(Nc1nnc(-c2ccco2)o1)c1ccc2ccccc2c1
EC50 [13]: 12.8 µM (active) | IC50 (H9c2): > 79 µM (inactive) | EC50 (Streptokinase A): > 150 µM (not active) | EC50 (Streptococcus): > 150 µM (not active)

Cc1ccc(NC(=O)N2CCC(c3ccccc3)C2)cc1C (stereo not drawn)
EC50 [9]: > 112 µM (not active) | EC50 [10]: > 112 µM (not active)

CCCOC(=O)c1ccc(NC(=O)c2ccoc2C)cc1
EC50 [9]: 5.2 µM (active) | EC50 [10]: 4.18 µM (active)

Cc1ccc(S(=O)(=O)c2nc(-c3ccccc3Cl)oc2N(C)C)cc1
EC50 (cells [5]): > 350 µM (not active) | EC50 (cells [6]): > 350 µM (not active)

CCNC(=O)COc1cccc(C(=O)NCc2ccccc2)c1
EC50 (cells [5]): > 350 µM (not active) | EC50 (cells [6]): > 350 µM (not active)

CC(C)OCCCNC(=O)c1c(N)n(Cc2cccs2)c2nc3ccccc3nc12
EC50 [3]: 84.7 µM (active) | AC50 [21]: 3.51 µM (active) | EC50 [4]: 216 µM (active)

O=C(/C=C/c1cn(-c2ccccc2)nc1-c1cccnc1)c1ccco1
CC50 [8]: 11.5 µM (active)

COc1ccc(-c2nn(-c3ccccc3)cc2C(=O)O)cc1OC
EC50 [9]: > 112 µM (not active) | EC50 [10]: > 112 µM (not active)

Cc1cc(C)cc(-n2c(N)c(C(=O)Nc3c(C)n(C)n(-c4ccccc4)c3=O)c3nc4ccccc4nc32)c1
EC50 [1]: > 60 µM (not active) | EC50 [2]: 1.21 µM (active) | EC50 [3]: 11.8 µM (active) | EC50 [4]: 13 µM (active)

CN(Cc1ccccc1)N=Nc1[nH]cnc1C(N)=O
AC50 (Paired box protein Pax-8): 21.2 µM (active)

O=C(NCCCN1CCOCC1)c1cc(-c2ccccc2)on1
EC50 (cells [5]): > 350 µM (not active) | EC50 (cells [6]): 11.5 µM (active)

CS(=O)(=O)Nc1ccc2c(c1)[C@H]1C[C@H](CC(=O)NCc3ccc(-c4ccccc4)cc3)O[C@H](CO)[C@H]1O2
AC50 [17]: 39 µM (active)

Cc1ccc(S(=O)(=O)N2CCN(CC(=O)N/N=C\C(Cl)=C\c3ccccc3)CC2)cc1
EC50 [3]: 44.2 µM (active) | EC50 [4]: 39.3 µM (active)

CC(=O)c1ccc2c(c1)C1C(Cl)C(Sc3ccccc3[N+](=O)[O-])CC1C(c1ccccc1)N2 (stereo not drawn)
CC50 [8]: > 40 µM (active)

CN(C)CCNC(=O)/C(=C/c1ccc(-c2cccc(Cl)c2)o1)NC(=O)c1ccccc1
EC50 [3]: 10.3 µM (active) | EC50 [4]: 10.3 µM (active) | EC50 [22]: > 260 µM (inactive)

Cc1cnc(NC(=O)NCC2CCCC(CNC(=O)Nc3ncc(C)s3)C2)s1 (stereo not drawn)
CC50 [8]: > 40 µM (active)
